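Five concentrations, 48 hours, 96-well plates. GI50 marks 50% less growth. TGI: total growth inhibition.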
Experiments:
Assay in all cases: inhibition of tumour cell growth, NCI panel, 48 h
786-0 renal = system: 786-0 renal
A498 renal = system: A498 renal
A549 NSCLC = system: A549 NSCLC
ACHN renal = system: ACHN renal
CAKI-1 renal = system: CAKI-1 renal
CCRF-CEM leukemia = system: CCRF-CEM leukemia
COLO 205 colon = system: COLO 205 colon
EKVX NSCLC = system: EKVX NSCLC
HCC-2998 colon = system: HCC-2998 colon
HCT-116 colon = system: HCT-116 colon
HCT-15 colon = system: HCT-15 colon
HL-60(TB) leukemia = system: HL-60(TB) leukemia
HOP-62 NSCLC = system: HOP-62 NSCLC
HOP-92 NSCLC = system: HOP-92 NSCLC
HS 578T breast = system: HS 578T breast
HT29 colon = system: HT29 colon
K-562 leukemia = system: K-562 leukemia
KM12 colon = system: KM12 colon
LOX IMVI melanoma = system: LOX IMVI melanoma
MCF7 breast = system: MCF7 breast
MDA-MB-435 = system: MDA-MB-435
MOLT-4 leukemia = system: MOLT-4 leukemia
NCI-H226 lung = system: NCI-H226 lung
NCI-H23 lung = system: NCI-H23 lung
NCI-H460 lung = system: NCI-H460 lung
NCI-H522 lung = system: NCI-H522 lung
NCI/ADR-RES ovarian = system: NCI/ADR-RES ovarian
OVCAR-3 ovarian = system: OVCAR-3 ovarian
OVCAR-4 ovarian = system: OVCAR-4 ovarian
OVCAR-8 ovarian = system: OVCAR-8 ovarian
PC-3 prostate = system: PC-3 prostate
RPMI-8226 leukemia = system: RPMI-8226 leukemia
RXF 393 renal = system: RXF 393 renal
SF-268 CNS = system: SF-268 CNS
SF-295 CNS = system: SF-295 CNS
SF-539 CNS = system: SF-539 CNS
SK-MEL-2 melanoma = system: SK-MEL-2 melanoma
SK-MEL-28 melanoma = system: SK-MEL-28 melanoma
SK-MEL-5 melanoma = system: SK-MEL-5 melanoma
SK-OV-3 ovarian = system: SK-OV-3 ovarian
SN12C renal = system: SN12C renal
SNB-19 CNS = system: SNB-19 CNS
SR leukemia = system: SR leukemia
SW-620 colon = system: SW-620 colon
T-47D breast = system: T-47D breast
TK-10 renal = system: TK-10 renal
U251 CNS = system: U251 CNS
UACC-257 melanoma = system: UACC-257 melanoma
UACC-62 melanoma = system: UACC-62 melanoma
BT-549 breast = system: BT-549 breast
DU-145 prostate = system: DU-145 prostate
IGROV1 ovarian = system: IGROV1 ovarian
M14 melanoma = system: M14 melanoma
MALME-3M melanoma = system: MALME-3M melanoma
MDA-MB-231 breast = system: MDA-MB-231 breast
OVCAR-5 ovarian = system: OVCAR-5 ovarian
UO-31 renal = system: UO-31 renal

COc1ccc(-c2oc3cc(O)c(OC)c(O)c3c(=O)c2OC)cc1O
GI50 (786-0 renal): 0.578 µM
TGI (786-0 renal): 7.42 µM
GI50 (A498 renal): 0.21 µM
TGI (A498 renal): 0.801 µM
GI50 (A549 NSCLC): 1.07 µM
TGI (A549 NSCLC): > 100 µM
GI50 (ACHN renal): 1.52 µM
TGI (ACHN renal): > 100 µM
GI50 (CAKI-1 renal): 2.38 µM
TGI (CAKI-1 renal): 28.3 µM
GI50 (CCRF-CEM leukemia): 0.343 µM
TGI (CCRF-CEM leukemia): > 100 µM
GI50 (COLO 205 colon): 5.85 µM
TGI (COLO 205 colon): 28.8 µM
GI50 (EKVX NSCLC): 3.43 µM
TGI (EKVX NSCLC): > 100 µM
GI50 (HCC-2998 colon): 1.22 µM
TGI (HCC-2998 colon): > 100 µM
GI50 (HCT-116 colon): 0.0762 µM
TGI (HCT-116 colon): 6.56 µM
GI50 (HCT-15 colon): 0.0928 µM
TGI (HCT-15 colon): > 100 µM
GI50 (HL-60(TB) leukemia): 0.0275 µM
TGI (HL-60(TB) leukemia): 0.212 µM
GI50 (HOP-62 NSCLC): 0.271 µM
TGI (HOP-62 NSCLC): > 100 µM
GI50 (HOP-92 NSCLC): 3.46 µM
TGI (HOP-92 NSCLC): > 100 µM
GI50 (HS 578T breast): 0.037 µM
TGI (HS 578T breast): 0.715 µM
GI50 (HT29 colon): 3.5 µM
TGI (HT29 colon): > 100 µM
GI50 (K-562 leukemia): 0.0436 µM
TGI (K-562 leukemia): > 100 µM
GI50 (KM12 colon): 0.437 µM
TGI (KM12 colon): 20.9 µM
GI50 (LOX IMVI melanoma): 0.0766 µM
TGI (LOX IMVI melanoma): > 100 µM
GI50 (MCF7 breast): 0.316 µM
TGI (MCF7 breast): > 100 µM
GI50 (MDA-MB-435): 0.025 µM
TGI (MDA-MB-435): 0.0674 µM
GI50 (MOLT-4 leukemia): 0.509 µM
TGI (MOLT-4 leukemia): > 100 µM
GI50 (NCI-H226 lung): 2.5 µM
TGI (NCI-H226 lung): > 100 µM
GI50 (NCI-H23 lung): 0.443 µM
TGI (NCI-H23 lung): > 100 µM
GI50 (NCI-H460 lung): 0.138 µM
TGI (NCI-H460 lung): 4.34 µM
GI50 (NCI-H522 lung): 0.0589 µM
TGI (NCI-H522 lung): 7.87 µM
GI50 (NCI/ADR-RES ovarian): 0.0456 µM
TGI (NCI/ADR-RES ovarian): > 100 µM
GI50 (OVCAR-3 ovarian): 0.0432 µM
TGI (OVCAR-3 ovarian): 0.194 µM
GI50 (OVCAR-4 ovarian): 1.26 µM
TGI (OVCAR-4 ovarian): > 100 µM
GI50 (OVCAR-8 ovarian): 0.375 µM
TGI (OVCAR-8 ovarian): > 100 µM
GI50 (PC-3 prostate): 4.44 µM
TGI (PC-3 prostate): > 100 µM
GI50 (RPMI-8226 leukemia): 0.417 µM
TGI (RPMI-8226 leukemia): > 100 µM
GI50 (RXF 393 renal): 0.171 µM
TGI (RXF 393 renal): > 100 µM
GI50 (SF-268 CNS): 0.0754 µM
TGI (SF-268 CNS): > 100 µM
GI50 (SF-295 CNS): 0.3 µM
TGI (SF-295 CNS): 2.04 µM
GI50 (SF-539 CNS): 0.0445 µM
TGI (SF-539 CNS): 21.9 µM
GI50 (SK-MEL-2 melanoma): 0.536 µM
TGI (SK-MEL-2 melanoma): > 100 µM
GI50 (SK-MEL-28 melanoma): 0.0775 µM
TGI (SK-MEL-28 melanoma): > 100 µM
GI50 (SK-MEL-5 melanoma): 0.0786 µM
TGI (SK-MEL-5 melanoma): 2.67 µM
GI50 (SK-OV-3 ovarian): 0.207 µM
TGI (SK-OV-3 ovarian): 16.4 µM
GI50 (SN12C renal): 0.212 µM
TGI (SN12C renal): > 100 µM
GI50 (SNB-19 CNS): 0.189 µM
TGI (SNB-19 CNS): > 100 µM
GI50 (SR leukemia): 0.039 µM
TGI (SR leukemia): > 100 µM
GI50 (SW-620 colon): 0.0485 µM
TGI (SW-620 colon): > 100 µM
GI50 (T-47D breast): 0.819 µM
TGI (T-47D breast): > 100 µM
GI50 (TK-10 renal): 21.1 µM
TGI (TK-10 renal): > 100 µM
GI50 (U251 CNS): 0.0708 µM
TGI (U251 CNS): > 100 µM
GI50 (UACC-257 melanoma): > 100 µM
TGI (UACC-257 melanoma): > 100 µM
GI50 (UACC-62 melanoma): 0.311 µM
TGI (UACC-62 melanoma): > 100 µM

O=C(CSC(c1ccccc1)c1ccccc1)N/N=C/c1ccc(Cl)cc1Cl
GI50 (786-0 renal): 40.1 µM
TGI (786-0 renal): > 100 µM
GI50 (A498 renal): 25.6 µM
TGI (A498 renal): 52.1 µM
GI50 (A549 NSCLC): 20.5 µM
TGI (A549 NSCLC): 51.1 µM
GI50 (ACHN renal): 26.6 µM
TGI (ACHN renal): 66.3 µM
GI50 (BT-549 breast): 30 µM
TGI (BT-549 breast): 75.8 µM
GI50 (CAKI-1 renal): 38.3 µM
TGI (CAKI-1 renal): 83 µM
GI50 (CCRF-CEM leukemia): 31.5 µM
TGI (CCRF-CEM leukemia): > 100 µM
GI50 (DU-145 prostate): 32.9 µM
TGI (DU-145 prostate): 93.5 µM
GI50 (EKVX NSCLC): 43.6 µM
TGI (EKVX NSCLC): > 100 µM
GI50 (HCC-2998 colon): 26.9 µM
TGI (HCC-2998 colon): 71 µM
GI50 (HCT-116 colon): 18.5 µM
TGI (HCT-116 colon): 44.4 µM
GI50 (HCT-15 colon): 37.6 µM
TGI (HCT-15 colon): > 100 µM
GI50 (HL-60(TB) leukemia): 24.4 µM
TGI (HL-60(TB) leukemia): 55.1 µM
GI50 (HOP-62 NSCLC): 42.3 µM
TGI (HOP-62 NSCLC): > 100 µM
GI50 (HOP-92 NSCLC): 31.1 µM
TGI (HOP-92 NSCLC): 83.4 µM
GI50 (HS 578T breast): 34.8 µM
TGI (HS 578T breast): > 100 µM
GI50 (IGROV1 ovarian): 19.9 µM
TGI (IGROV1 ovarian): 53.5 µM
GI50 (K-562 leukemia): 19 µM
TGI (K-562 leukemia): 96.6 µM
GI50 (KM12 colon): 16.6 µM
TGI (KM12 colon): 38.9 µM
GI50 (LOX IMVI melanoma): 27.1 µM
TGI (LOX IMVI melanoma): 97.4 µM
GI50 (M14 melanoma): 29.2 µM
TGI (M14 melanoma): 87.2 µM
GI50 (MALME-3M melanoma): 16 µM
TGI (MALME-3M melanoma): 42 µM
GI50 (MCF7 breast): 7.82 µM
TGI (MCF7 breast): 29.2 µM
GI50 (MDA-MB-231 breast): 22.5 µM
TGI (MDA-MB-231 breast): > 100 µM
GI50 (MDA-MB-435): 29.6 µM
TGI (MDA-MB-435): 79.2 µM
GI50 (MOLT-4 leukemia): 19.6 µM
TGI (MOLT-4 leukemia): 68.1 µM
GI50 (NCI-H226 lung): 32.6 µM
TGI (NCI-H226 lung): > 100 µM
GI50 (NCI-H23 lung): 21.4 µM
TGI (NCI-H23 lung): 56.9 µM
GI50 (NCI-H460 lung): 20.1 µM
TGI (NCI-H460 lung): 49.8 µM
GI50 (NCI-H522 lung): 12.4 µM
TGI (NCI-H522 lung): 59.2 µM
GI50 (NCI/ADR-RES ovarian): 35.3 µM
TGI (NCI/ADR-RES ovarian): > 100 µM
GI50 (OVCAR-3 ovarian): 29.2 µM
TGI (OVCAR-3 ovarian): 83 µM
GI50 (OVCAR-4 ovarian): 38.8 µM
TGI (OVCAR-4 ovarian): > 100 µM
GI50 (OVCAR-5 ovarian): 31.6 µM
TGI (OVCAR-5 ovarian): > 100 µM
GI50 (OVCAR-8 ovarian): 37.9 µM
TGI (OVCAR-8 ovarian): > 100 µM
GI50 (PC-3 prostate): 31.9 µM
TGI (PC-3 prostate): > 100 µM
GI50 (RPMI-8226 leukemia): 15.6 µM
TGI (RPMI-8226 leukemia): 41.8 µM
GI50 (RXF 393 renal): 34.4 µM
TGI (RXF 393 renal): 89.1 µM
GI50 (SF-268 CNS): 36.8 µM
TGI (SF-268 CNS): > 100 µM
GI50 (SF-295 CNS): 33.6 µM
TGI (SF-295 CNS): 90.8 µM
GI50 (SF-539 CNS): 57.7 µM
TGI (SF-539 CNS): > 100 µM
GI50 (SK-MEL-2 melanoma): 18.4 µM
TGI (SK-MEL-2 melanoma): 55.8 µM
GI50 (SK-MEL-5 melanoma): 18.1 µM
TGI (SK-MEL-5 melanoma): 32.7 µM
GI50 (SN12C renal): 15.7 µM
TGI (SN12C renal): 29.9 µM
GI50 (SR leukemia): 17 µM
TGI (SR leukemia): 38.8 µM
GI50 (SW-620 colon): 42 µM
TGI (SW-620 colon): > 100 µM
GI50 (TK-10 renal): 26 µM
TGI (TK-10 renal): 72 µM
GI50 (U251 CNS): 24 µM
TGI (U251 CNS): 67.3 µM
GI50 (UACC-257 melanoma): 23.1 µM
TGI (UACC-257 melanoma): 68.3 µM
GI50 (UACC-62 melanoma): 21.9 µM
TGI (UACC-62 melanoma): > 100 µM
GI50 (UO-31 renal): 18.8 µM
TGI (UO-31 renal): 68 µM
